Legend:
PGE2 diarrhea in mice = assay: Antagonism of diarrhea induced by prostaglandin E2 (PGE2); assay type: in vivo; conditions: 20 mg./kg., subcutaneously 15 minutes prior to intraperitoneal PGE2, examined every 15 minutes for one hour
Protocol: The antagonism of diarrhea induced by prostaglandin E2 (PGE2) was determined by employing the modified standard animal pharmacological test procedure as reported in Intra Science Chem. Rept, 6:1-9, 1972 and Annals of the New York Academy of Sciences, 180:386-95, 1971. Briefly the test comprises administering the test compounds subcutaneously 15 minutes prior to an intraperitoneal injection of PGE2. Each animal is examined for diarrhea (which results after the administration of PGE2) every 15 minutes for one hour post-drug. Polyphloretin phosphate and 7 oxa-13-prostynoic acid, both well known antagonists of prostaglandin induced diarrhea, were employed as reference compounds.

prostaglandin synthesis = assay: Inhibition of prostaglandin synthesis (arachidonic acid-dependent formation of adrenochrome from L-epinephrine during prostaglandin biosynthesis; Takeguchi and Sih); assay type: biochemical; conditions: for IC50: read-out: ID50 (the source's name)
Description: The prostaglandin synthesis inhibition method as employed is reported by Takeguchi and Sih, Prostaglandins, 2, 169, 1972. The principle entails the arachidonic acid-dependent formation of adrenochrome from L-epinephrine during prostaglandin biosynthesis. Indomethacin, phenylbutazone and aspirin were used as reference compounds.

[1] = prostaglandin synthesis inhibition

IC50 (prostaglandin synthesis; [1]) | Compound | inhibition of PGE2 diarrhea in mice (PGE2 diarrhea in mice) | other results
410 µM | CCCCCC(O)/C=C/c1ccccc1CCCCCCC(=O)O (stereo not drawn) [1-(6-carboxyhexyl)-2-(3-hydroxy-trans-1-octenyl)benzene] | – | inhibition of prostaglandin synthesis (prostaglandin synthesis; at 1000 μM): 100%; potency as inhibitor relative to aspirin (prostaglandin synthesis; ratio of ID50's, prostaglandin synthesis inhibition, vs aspirin): nine times as potent; potency as inhibitor relative to phenylbutazone (prostaglandin synthesis; ratio of ID50's, prostaglandin synthesis inhibition, vs phenylbutazone): twice as potent
3700 µM | CC(=O)Oc1ccccc1C(=O)O [aspirin, reference compound] | – | –
875 µM | CCCCC1C(=O)N(c2ccccc2)N(c2ccccc2)C1=O [phenylbutazone, reference compound] | – | –

Continued, compound first:

Compound | IC50 (prostaglandin synthesis; [1]) | inhibition of PGE2 diarrhea in mice (PGE2 diarrhea in mice) | other results
CCCCCC(O)/C=C/c1ccccc1CCCCCCC(=O)OC (stereo not drawn) [1-(6-carbomethoxyhexyl)-2-(3-hydroxy-trans-1-octenyl)benzene] | – | 53% | –
polyphloretin phosphate [reference compound] | – | 36% | –
